Experimental data reported in article PMC7822874, “Chemoprotective antimalarials identified through quantitative high-throughput screening of Plasmodium blood and liver stage parasites” (Scientific Reports, 2021).
“And” between values parts separate entries of the source, which are not always exact repeats. Equal entries are not always repeated.

Legend:
[1] = tested on: T1, Plasmodium falciparum Dd2-attB (parental line), asexual blood stages; assay: microbe, parasite or virus in culture; set-up: replicate k of 3 (each line is one of three independent assays; the three lines of one compound and parasite line follow each other); conditions: n = 1; for Individual replicates / Log AC50 (M): 72 h; for AC50: Plasmodium falciparum, DD2, 72 h, read-out: Individual replicates / Log AC50 (converted)
T1 construct: Dd2-attB, the isogenic parental line
How it was run: (§1)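 We compare activity in parasites carrying fumarate-using yeast DHODH with that in the parental line; mETC or parasite DHODH inhibitors are bypassed by this enzyme. Data come from three independent assays, analysed by two-sided Student's t-tests.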

[2] = tested on: T2, Plasmodium falciparum Dd2-attB-ScDHODH (transgenic line expressing yeast DHODH), asexual blood stages; assay: organism not typed; set-up: replicate k of 3 (each line is one of three independent assays; the three lines of one compound and parasite line follow each other)
T2 construct: Dd2-attB-ScDHODH, the transgenic line that expresses yeast DHODH
How it was run: as §1

[3] = 72 h; n = 1; read-out: Individual replicates / Log AC50 (converted)

SMILES | Individual replicates / Log AC50 (M) [1] | AC50 [1] | Individual replicates / Log AC50 (M) ([2]; 72 h, n = 1) | AC50 [2, 3] | Individual replicates / Log AC50 (M) ([2]; 72 h; n = 1)
CC1CN(c2cnc3c(O)ccc(C(=O)O)c3c2)CCN1Cc1ccccc1 (centres unmarked) [NCGC00249383-01] | -4.7486 Log AC50 (M) and -4.8486 Log AC50 (M) | 17.8 µM | -4.7986 Log AC50 (M) | 17.8 µM | 
O=C(NCCC12CCCN1CCC2)c1cccc(-c2cc(O)c3ncccc3c2)c1 [NCGC00249386-01] | -4.7986 Log AC50 (M) | 17.8 µM | -4.6986 Log AC50 (M) | 17.8 µM | 
O=C(NCCCCCN1CCOCC1)c1cccc(-c2cc(O)c3ncccc3c2)c1 [NCGC00249387-01] | -4.9986 Log AC50 (M) | 7.1 µM | -4.6986 Log AC50 (M) and -5.0486 Log AC50 (M) and -4.7986 Log AC50 (M) |  | 
COC(=O)c1ccc(O)c2ncc(N3CCOCC3)cc12 [NCGC00262492-01] | -5.3486 Log AC50 (M) and -5.3986 Log AC50 (M) | 5.64 µM | -5.2986 Log AC50 (M) | 5.64 µM | 
CCOC(=O)CCNc1cc(N2CCc3ccccc3CC2)nc(-c2ccccn2)n1 [NCGC00344626-04] | -5.2986 Log AC50 (M) and -5.2486 Log AC50 (M) and -5.0486 Log AC50 (M) |  | -5.2986 Log AC50 (M) and -4.9486 Log AC50 (M) |  | 
CCOC(=O)CCNc1cc(N2CCc3ccccc3CC2)nc(-c2cccnc2)n1 [NCGC00351550-01] | -4.8986 Log AC50 (M) | 14.2 µM | -4.7986 Log AC50 (M) |  | 
CCOC(=O)CCNc1cc(N2CCc3ccccc3CC2)nc(-c2cccnc2)n1 [NCGC00351550-02] | -4.8486 Log AC50 (M) (2×) and -4.7486 Log AC50 (M) |  | -5.0986 Log AC50 (M) and -4.7986 Log AC50 (M) |  | 
O=C(NC1=CC(=O)c2ccccc2C1=O)c1ccccc1 [NCGC00357425-01] | -5.5986 Log AC50 (M) and -5.7986 Log AC50 (M) and -5.3486 Log AC50 (M) |  | -5.6486 Log AC50 (M) (2×) and -5.2986 Log AC50 (M) |  | 
CC(=O)Nc1cccc(-c2csc(Nc3cc(C)ccn3)n2)c1 [NCGC00357426-01] | -4.8486 Log AC50 (M) (2×) and -4.7986 Log AC50 (M) |  | -4.8486 Log AC50 (M) |  | 
Cn1cnc(-c2nccc3c(O)nc(OCCCC(F)(F)F)nc23)c1 [NCGC00381768-01] | -4.7486 Log AC50 (M) and -4.7986 Log AC50 (M) | 15.9 µM |  | 17.8 µM | -4.7486 Log AC50 (M)
CN(C)C(=S)SN(C)C(=O)Nc1ccccc1 [NCGC00386444-01] | -5.7986 Log AC50 (M) | 1.78 µM | -5.7986 Log AC50 (M) | 2.25 µM | 
C/C(=N\NC(=S)N1CCN(c2ccccn2)CC1)c1ccccn1 [NCGC00386445-01] | -5.3486 Log AC50 (M) | 4.48 µM |  | 4.48 µM | -5.3486 Log AC50 (M)
CN(C)c1ccc(-c2nc(-c3ccccc3O)n(Cc3ccccc3)n2)cc1 [NCGC00388637-01] | -6.0986 Log AC50 (M) | 0.797 µM | -5.6486 Log AC50 (M) and -6.0486 Log AC50 (M) and -6.1486 Log AC50 (M) |  | 
Cc1ccc(C(CCN2CCCCC2)c2cc3cccc(C(=O)O)c3[nH]2)cc1 (centres unmarked) [NCGC00389137-01] | -5.5486 Log AC50 (M) and -5.3986 Log AC50 (M) and -5.1486 Log AC50 (M) |  | -5.3486 Log AC50 (M) and -5.0486 Log AC50 (M) |  | 
c1ccc(CCn2nc(-c3ccccn3)nc2CCCN2CCCCC2)cc1 [NCGC00389173-01] | -5.2986 Log AC50 (M) and -5.0986 Log AC50 (M) and -5.4486 Log AC50 (M) |  | -5.2486 Log AC50 (M) and -5.3986 Log AC50 (M) and -5.0486 Log AC50 (M) |  | 
Cc1ccc(C(CCN2CCCCC2)c2cc3cccc(C(N)=O)c3[nH]2)cc1 (centres unmarked) [NCGC00389183-01] | -5.2486 Log AC50 (M) | 5.03 µM | -5.3486 Log AC50 (M) and -5.0986 Log AC50 (M) | 5.03 µM | 
O=C(O)c1ccc(N(CCN2CCC(F)(F)CC2)c2ccc(F)cc2)cn1 [NCGC00390011-01] | -4.7486 Log AC50 (M) | 20 µM |  | 17.8 µM | 
c1ccc(CCn2nc(-c3cnccn3)nc2CCCN2CCCCC2)cc1 [NCGC00390064-01] | -4.9986 Log AC50 (M) and -5.1486 Log AC50 (M) and -4.8486 Log AC50 (M) |  | -4.7986 Log AC50 (M) and -5.0986 Log AC50 (M) and -4.7486 Log AC50 (M) |  | 

SMILES | Individual replicates / Log AC50 (M) [1] | AC50 [1] | Individual replicates / Log AC50 (M) ([2]; 72 h, n = 1) | AC50 [2, 3] | Individual replicates / Log AC50 (M) ([2]; 72 h; n = 1)
CN(C)CCn1nc(-c2ccccc2O)nc1-c1ccccc1 [NCGC00390082-01] | -4.7486 Log AC50 (M) and -4.8486 Log AC50 (M) | 14.2 µM | -4.7986 Log AC50 (M) | 12.6 µM | 
CN(C)CCn1nc(-c2ccccc2)nc1-c1ccccc1O [NCGC00390083-01] | -5.1486 Log AC50 (M) and -5.1986 Log AC50 (M) | 7.1 µM | -5.1486 Log AC50 (M) | 7.97 µM | 
Cc1nn2c(c1-c1ccccc1-c1ccccc1)N(CC1CC1)CCC2 [NCGC00420435-02] | -4.7986 Log AC50 (M) and -4.8486 Log AC50 (M) | 14.2 µM | -4.7486 Log AC50 (M) and -4.8486 Log AC50 (M) | 15.9 µM | 
Cc1nn2c(c1-c1ccccc1-c1ccccc1)N(Cc1ccc(C(=O)O)s1)CCC2 [NCGC00420478-02] | -4.8986 Log AC50 (M) and -4.7986 Log AC50 (M) | 17.8 µM | -4.7486 Log AC50 (M) | 14.2 µM | 
C/C=C(\C#N)C(=O)N1CCCN(c2cc(NCCC(=O)OC)nc(-c3ccccn3)n2)CC1 [NCGC00420778-01] |  | 15.9 µM |  | 14.2 µM | 
CCO/C=C(\C#N)C(=O)N1CCCN(c2cc(NCCC(=O)OC)nc(-c3ccccn3)n2)CC1 [NCGC00420783-01] | -5.0986 Log AC50 (M) and -5.0486 Log AC50 (M) | 8.94 µM | -5.0486 Log AC50 (M) and -4.8986 Log AC50 (M) | 10 µM | 
COC(=O)c1ccnc2cc(C(OCCN3CCCCC3)c3ccccc3Cl)[nH]c12 (centres unmarked) [NCGC00420857-01] | -5.2986 Log AC50 (M) and -5.1986 Log AC50 (M) | 4.48 µM | -5.0986 Log AC50 (M) | 5.03 µM | 
COC(=O)c1ccnc2cc(C(OCCC3CCCCC3)c3ccccc3Cl)[nH]c12 (centres unmarked) [NCGC00421833-01] | -4.7986 Log AC50 (M) and -4.7486 Log AC50 (M) | 15.9 µM | -4.7486 Log AC50 (M) and -4.7986 Log AC50 (M) | 17.8 µM | 
O=C(O)c1ccnc2cc(C(OCCN3CCOCC3)c3ccccc3Cl)[nH]c12 (centres unmarked) [NCGC00421890-01] | -5.1986 Log AC50 (M) | 5.64 µM | -5.3986 Log AC50 (M) and -5.2486 Log AC50 (M) | 5.03 µM | 
COc1ccc(-c2c(-c3cc(N)ccn3)ncn2C)cc1 [NCGC00421914-01] | -4.7986 Log AC50 (M) and -4.9486 Log AC50 (M) | 14.2 µM | -4.9986 Log AC50 (M) | 12.6 µM | 
O=C(O)c1ccnc2cc(C(OCCCN3CCCCC3)c3ccccc3Cl)[nH]c12 (centres unmarked) [NCGC00421948-01] | -4.9486 Log AC50 (M) | 7.97 µM |  | 5.03 µM | 
CCOC(=O)C1(Cc2ccc(Cl)cc2)CCN(C(=O)c2cc(C)oc2C)CC1 [NCGC00426139-02] | -5.0986 Log AC50 (M) | 8.94 µM | -4.8986 Log AC50 (M) and -4.7986 Log AC50 (M) | 15.9 µM | 
CCCN1C(CC(C)C)=N[S+](=O)([O-])c2cc(NC(=O)c3cccs3)ccc21 [NCGC00473217-02] | -7.0986 Log AC50 (M) and -6.8486 Log AC50 (M) and -6.8986 Log AC50 (M) |  | -6.3986 Log AC50 (M) and -6.0986 Log AC50 (M) and -6.3486 Log AC50 (M) |  | 
COC(=O)c1ccnc2cc(C(OCCC3CCCN3C)c3ccccc3Cl)[nH]c12 (centres unmarked) [NCGC00479019-01] | -5.1986 Log AC50 (M) and -5.1486 Log AC50 (M) | 5.03 µM | -5.2986 Log AC50 (M) and -5.1486 Log AC50 (M) | 7.1 µM | 
CC(OCCN1CCCCC1)c1cnn(-c2cc(CO)ccn2)c1-c1cccc(-c2ccccc2)c1 (centres unmarked) [NCGC00479246-01] | -5.5486 Log AC50 (M) and -5.3986 Log AC50 (M) | 3.56 µM | -5.3486 Log AC50 (M) | 3.56 µM | 
COC(=O)c1ccnc2sc(N(CCCN3CCCCC3)c3ccccc3Cl)nc12 [NCGC00480953-01] | -5.2486 Log AC50 (M) and -5.3486 Log AC50 (M) | 4.48 µM | -5.0986 Log AC50 (M) | 4.48 µM | 
CN1CCC(CCOC(c2cc3nccc(C(=O)O)c3[nH]2)c2ccccc2Cl)C1 (centres unmarked) [NCGC00481023-01] |  | 12.6 µM |  | 8.94 µM | 
COC(=O)c1ccnc2cc(C(OCCC3CCCN3C)c3ccccc3Cl)sc12 (centres unmarked) [NCGC00481040-01] | -5.0986 Log AC50 (M) and -4.9486 Log AC50 (M) | 8.94 µM | -4.8486 Log AC50 (M) | 12.6 µM | 
